Assay results as given in patent US20030215462A1, “Use of UGT inhibitors to increase bioavailability” (priority 2001, published 2003).
Values joined by “and” are separate entries in the source; they are usually repeats but may differ in a detail not shown here. Identical values can stand only once.

Assays:
[1] = target: T1, UGT1A8 (Homo sapiens, UniProt Q9HAW9); assay: Inhibition of raloxifene glucuronidation by recombinant UGT1A8 Supersomes; conditions: human, Supersomes with recombinant human UGT1A8, pH 7.5, probe raloxifene 50 μM; for activity at 15 min, 50 µM: inhibitor 50 μM; for activity at 15 min, 10 µM: inhibitor 10 μM
T1 sequence (Q9HAW9 26-530): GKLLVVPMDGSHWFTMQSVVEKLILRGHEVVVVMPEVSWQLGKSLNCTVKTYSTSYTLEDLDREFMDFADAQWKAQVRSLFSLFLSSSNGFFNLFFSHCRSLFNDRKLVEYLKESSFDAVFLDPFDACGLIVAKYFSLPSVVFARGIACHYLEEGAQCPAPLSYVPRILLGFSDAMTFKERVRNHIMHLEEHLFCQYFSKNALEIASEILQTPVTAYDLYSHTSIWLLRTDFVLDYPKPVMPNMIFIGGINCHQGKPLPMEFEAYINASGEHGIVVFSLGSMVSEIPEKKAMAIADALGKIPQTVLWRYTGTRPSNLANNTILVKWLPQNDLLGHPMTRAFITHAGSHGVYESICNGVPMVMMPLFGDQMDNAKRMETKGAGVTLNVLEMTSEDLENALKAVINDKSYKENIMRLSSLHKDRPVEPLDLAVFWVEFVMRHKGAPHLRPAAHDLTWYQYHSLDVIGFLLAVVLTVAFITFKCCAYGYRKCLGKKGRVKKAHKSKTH
Protocol: (§1) Compounds were eluted using a binary solvent gradient system. Solvent A was water brought to pH 8 with NH4OH. Solvent B was methanol. Solvent flow rate was 1 ml/min and the column temperature was maintained at 50° C. Detection was at 280 nm. […] The system was then returned to the initial conditions and equilibrated for 3 min.

[2] = target: T2, UGT enzymes of human liver microsomes; assay: Inhibition of 7-HFC glucuronidation in human liver microsomes; type: biochemical; conditions: for IC50 / % of control metabolism (SD, n = 3), 7-HFC glucuronidation: 7-HFC 50 μM, 15 min; for IC50: 1 mM UDPGA; for % of control metabolism (SD, n = 3), 7-HFC glucuronidation: human liver microsomes 100 μg/ml
T2 construct: percentage of control metabolism, 7-HFC glucuronidation; percentage of control metabolism, 7-HFC glucuronidation

[3] = system: UGT enzymes of human liver microsomes; assay: Inhibition of 2ME2 glucuronidation (MG1, MG2) in human liver microsomes; type: biochemical; conditions: liver 062101, 2ME2 50 μM
Text: Compounds were eluted using a binary solvent gradient system where solvent A was dilute phosphoric acid (pH 3) and solvent B was 80:20 acetonitrile-methanol. […] Detection was at 280 nm.

[4] = system: UGT enzymes of human liver microsomes; assay: Kinetic and Ki studies of inhibitors of 7-HFC glucuronidation in human liver microsomes; type: biochemical; conditions: for Inhibition Type: highest inhibitor concentration only; for Ki: highest inhibitor concentration only (tannic acid 0, 25; octyl gallate and gallocatechin gallate 0, 200 μM), read-out: Ki (apparent), 7-HFC glucuronidation
[5] = target: T3, UGT1A10 (Homo sapiens, UniProt Q9HAW8); assay: Inhibition of raloxifene glucuronidation by recombinant UGT1A10 Bacculosomes; conditions: for activity at 15 min, 25 µM / activity at 15 min, 50 µM: human, Bacculosomes with recombinant human UGT1A10, pH 7.5, probe raloxifene 50 μM; for activity at 15 min, 25 µM: inhibitor 25 μM; for activity at 15 min, 50 µM: inhibitor 50 μM
T3 sequence (Q9HAW8 26-530): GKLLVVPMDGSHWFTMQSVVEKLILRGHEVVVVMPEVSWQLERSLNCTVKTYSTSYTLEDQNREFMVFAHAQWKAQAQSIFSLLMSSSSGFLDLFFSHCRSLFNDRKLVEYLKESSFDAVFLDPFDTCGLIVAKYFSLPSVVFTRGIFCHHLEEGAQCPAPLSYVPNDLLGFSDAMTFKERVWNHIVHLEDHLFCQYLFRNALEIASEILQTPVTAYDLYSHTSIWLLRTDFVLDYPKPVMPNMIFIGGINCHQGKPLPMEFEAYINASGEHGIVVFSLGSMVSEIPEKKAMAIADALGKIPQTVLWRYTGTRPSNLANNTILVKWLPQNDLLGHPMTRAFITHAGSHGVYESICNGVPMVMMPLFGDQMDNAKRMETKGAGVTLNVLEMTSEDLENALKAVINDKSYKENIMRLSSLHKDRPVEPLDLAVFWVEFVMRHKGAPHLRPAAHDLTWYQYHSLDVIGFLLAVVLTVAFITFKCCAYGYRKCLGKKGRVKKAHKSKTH
Protocol: as §1

[6] = system: UGT enzymes of human liver microsomes; assay: Inhibition of labetalol glucuronidation (LG1, LG2) in human liver microsomes; type: biochemical; conditions: labetalol 50 μM
[7] = formation of glucuronide G1, % of control metabolism, raloxifene G1, UGT1A8
[8] = formation of glucuronide G2, % of control metabolism, raloxifene G2, UGT1A8
[9] = formation of glucuronide G1, % of control metabolism, raloxifene G1, UGT1A10
[10] = formation of glucuronide G2, % of control metabolism, raloxifene G2, UGT1A10

IC50 [2] [µM]	percentage of control metabolism, 7-HFC glucuronidation ([2]; inhibitor 25 μM)	% of control metabolism (SD, n = 3), 7-HFC glucuronidation ([2]; inhibitor 25 μM)	percentage of control metabolism, 7-HFC glucuronidation ([2]; inhibitor 50 μM)	% of control metabolism (SD, n = 3), 7-HFC glucuronidation ([2]; inhibitor 50 μM)	percentage of control metabolism, 7-HFC glucuronidation ([2]; inhibitor 100 μM)	% of control metabolism (SD, n = 3), 7-HFC glucuronidation ([2]; inhibitor 100 μM)	percentage of control metabolism, 7-HFC glucuronidation ([2]; inhibitor 200 μM)	% of control metabolism (SD, n = 3), 7-HFC glucuronidation ([2]; inhibitor 200 μM)	percentage of control metabolism, 7-HFC glucuronidation ([2]; inhibitor 500 μM)	% of control metabolism (SD, n = 3), 7-HFC glucuronidation ([2]; inhibitor 500 μM)	Inhibition Type [4]	Ki [4] [µM]	activity at 15 min, 50 µM [5, 9] [%]	activity at 15 min, 50 µM [5, 10] [%]	Compound	activity at 15 min, 50 µM [1, 7] [%]	activity at 15 min, 50 µM [1, 8] [%]	residual metabolism (% of control), 2ME2 MG1 ([3]; inhibitor 10 μM)	residual metabolism (% of control), 2ME2 MG2 ([3]; inhibitor 10 μM)	activity at 15 min, 25 µM [5, 9] [%]	also measured
~75	86 (1) %	86 (1) %	65 (0) %	65 (0) %	26 (1) % and 29 (1) %	26 (1), % and 29 (1) %	6 (0) %	6 (0) %	0.1 (0.1) %	0.1 (0.1) %	strictly non-competitive	16 ± 2	63	71	CCCCCCCCOC(=O)c1cc(O)c(O)c(O)c1 [Octyl gallate]	116	95				inhibition of raloxifene glucuronidation, in words ([5]; UGT1A10): very poor inhibitor
10	14 (1) % and 18 (0) %	14 (1), % and 18 (0) %	2 (0) %	2 (0) %	0 (0) %	0 (0) %	0 (0) %	0 (0) %	0 (0) %	0 (0) %	Non-competitive	5.4 ± 0.4	10	8	O=C(OC[C@H]1O[C@@H](OC(=O)c2cc(O)c(O)c(OC(=O)c3cc(O)c(O)c(O)c3)c2)[C@H](OC(=O)c2cc(O)c(O)c(OC(=O)c3cc(O)c(O)c(O)c3)c2)[C@@H](OC(=O)c2cc(O)c(O)c(OC(=O)c3cc(O)c(O)c(O)c3)c2)[C@@H]1OC(=O)c1cc(O)c(O)c(OC(=O)c2cc(O)c(O)c(O)c2)c1)c1cc(O)c(O)c(OC(=O)c2cc(O)c(O)c(O)c2)c1 [Tannic acid]			24 (1) %	69 (6) %	56	activity at 15 min, 10 µM [1, 7]: 73%; activity at 15 min, 10 µM [1, 8]: 75%; residual metabolism (% of control), 2ME2 MG1 ([3]; inhibitor 2 μM): 62 (2) %; residual metabolism (% of control), 2ME2 MG2 ([3]; inhibitor 2 μM): 105 (3) %; residual metabolism (% of control), 2ME2 MG1 ([3]; inhibitor 5 μM): 39 (0) %; residual metabolism (% of control), 2ME2 MG2 ([3]; inhibitor 5 μM): 91 (5) %; residual metabolism (percentage of control), labetalol LG1 ([6]; inhibitor 10 μM): 91 (2) %; residual metabolism (percentage of control), labetalol LG2 ([6]; inhibitor 10 μM): 88 (4) %; residual metabolism (percentage of control), labetalol LG1 ([6]; inhibitor 25 μM): 56 (2) %; residual metabolism (percentage of control), labetalol LG2 ([6]; inhibitor 25 μM): 51 (6) %; activity at 15 min, 25 µM [5, 10]: 53%

Compound	IC50 [2] [µM]	percentage of control metabolism, 7-HFC glucuronidation ([2]; inhibitor 25 μM)	% of control metabolism (SD, n = 3), 7-HFC glucuronidation ([2]; inhibitor 25 μM)	percentage of control metabolism, 7-HFC glucuronidation ([2]; inhibitor 50 μM)	% of control metabolism (SD, n = 3), 7-HFC glucuronidation ([2]; inhibitor 50 μM)	percentage of control metabolism, 7-HFC glucuronidation ([2]; inhibitor 100 μM)	% of control metabolism (SD, n = 3), 7-HFC glucuronidation ([2]; inhibitor 100 μM)	percentage of control metabolism, 7-HFC glucuronidation ([2]; inhibitor 200 μM)	% of control metabolism (SD, n = 3), 7-HFC glucuronidation ([2]; inhibitor 200 μM)	percentage of control metabolism, 7-HFC glucuronidation ([2]; inhibitor 500 μM)	% of control metabolism (SD, n = 3), 7-HFC glucuronidation ([2]; inhibitor 500 μM)	Inhibition Type [4]	Ki [4] [µM]	activity at 15 min, 50 µM [5, 9] [%]	activity at 15 min, 50 µM [5, 10] [%]	activity at 15 min, 50 µM [1, 7] [%]	activity at 15 min, 50 µM [1, 8] [%]	residual metabolism (% of control), 2ME2 MG1 ([3]; inhibitor 10 μM)	residual metabolism (% of control), 2ME2 MG2 ([3]; inhibitor 10 μM)	activity at 15 min, 25 µM [5, 9] [%]	also measured
O=C(O[C@@H]1Cc2c(O)cc(O)cc2O[C@H]1c1cc(O)c(O)c(O)c1)c1cc(O)c(O)c(O)c1 [Gallocatechin gallate]	100	80 (2) %	80 (2) %	68 (2) %	68 (2) %	54 (1) % and 46 (2) %	54 (1) % and 46 (2) %	25 (0) %	25 (0) %	0 (0) %	0 (0) %	Non-competitive	40 ± 3	49	48	36	35	56 (1) %	84 (1) %	64	Inhibition Type ([4]; listed as gallocatechin gallate): strictly non-competitive; activity at 15 min, 25 µM [5, 10]: 68%
